Assay: Solubility of guanine and glyoxal-guanine in water (HPLC of liquid layer)
Type: physicochemical
Details: for solubility to water: general statement, no temperature given; for Solubility at each temperature: water, stirred 1 hour
Description: An excess amount of each compound was suspended in water, stirred for 1 hour at each temperature and left for a while. The liquid layer was analyzed with HPLC equipped with a UV detector, under the conditions described below.
Conditions of the HPLC analysis:
Column: Superiorex ODS (manufactured by Shiseido)
Eluent: 0.1 M ammonium dihydrogenphosphate solution: methanol=97:3 (v/v)

solubility to water | Solubility at each temperature (30° C.) | Solubility at each temperature (40° C.) | Solubility at each temperature (50° C.) [mg/kg] | Solubility at each temperature (60° C.) [mg/kg] | Structure (SMILES)
does not exceed a few ppm | ≤ 2 or mg/kg | ≤ 2 or mg/kg | 2 | 2 | Nc1nc2nc[nH]c2c(=O)[nH]1 [Guanine, guanine]
soluble to water | 200 mg/kg | 275 mg/kg | 330 | 440 | O=c1c2nc[nH]c2nc2n1C(O)C(O)N2 (stereo not shown) [Glyoxal-guanine, 6,7-dihydro-6,7-dihydroxyimidazo[1,2-a]purine-9(3H)-one]
